Source: patent US8815523B2, “Method for live-cell activity assay” (Korea Institute of Science and Technology, priority 2010, dated 2014)

Columns and labels:
Type in all cases: cell-based
[1] = test system: Protein tyrosine phosphatase (PTP) in HeLa cells; experiment: Nanowire sandwich assay of intracellular PTP activity with PTP inhibitors (MALDI-TOF of substrate peptide); conditions: 100 μM sodium orthovanadate and 40 μM α-bromo-4-hydroxyacetophenone given together, 40 minutes pre-incubation, then 1 hour sandwich incubation, FIG. 5C
Procedure: Specifically, the silicon nanowires prepared in Example 1 were washed with 100% (v/v) isopropyl alcohol before use and dried at room temperature, and then, introduced in 2 ml of toluene solution containing 100 μl of APTMS (Aminopropyl trimethoxysilane), reacted at room temperature for 2 hours, and washed 3 times respectively with toluene, 100% ethanol and distilled water, and finally washed with PBS (Phosphate Buffered Saline) to complete silanization so that the surface of the silicon nanowire has positively charged ammonium group. […]
The cell-fixed nanowires were positioned down, the PTP substrate peptide-fixed nanowires were positioned up, and they were contacted with each other, and then, incubated in DMEM medium containing penicillin (100 units/ml), streptomycin (0.1 mg/ml), and 10% FBS at 37° C., 5% CO2 for 1 hour. After incubation, the cell-fixed silicon nanowires and the peptide-fixed nanowires were separated from each other, and the peptide-fixed nanowires were washed with PBS and introduced in a buffer containing 50 mM Tris-HCl, pH 7.5, 0.5 mM EDTA, and 1 mM DTT (Dithiothreitol), and TEV protease (10 units/150 μl, Invitrogen) were added and treated at room temperature for 2 hours, and then, desalting was conducted with Zip-TIP (MILLIPORE), and changes of peptides were analyzed by MALDI-TOF (Applied Biosystems). […]

intracellular caspases [2] = experiment: Nanowire sandwich assay of intracellular caspase activity, mass analysis (MALDI-TOF) of substrate peptide; conditions: 500 nM Staurosporine, 18 hours; FIG. 8C
intracellular caspases [3] = experiment: Nanowire sandwich assay of intracellular caspase activity, TAMRA-labelled substrate peptide, fluorescence microscope; conditions: 200 nM apoptosis inducing agent in medium, 4 hours; 555 nm excitation/590 nm emission; FIG. 6D
Procedure: Since the fragments released into cells have TAMRA dye and can be identified by fluorescence microscope, activation of caspases may be confirmed based thereon.
As described in Example 5, peptides were fixed to nanowires using SMPH linker, and the peptide-fixed nanowires were positioned down, cell-fixed nanowire were positioned up, and they were contacted in a sandwich manner and incubated in DMEM containing penicillin (100 units/ml), streptomycin (0.1 mg/ml), 10% FBS and 200 nM Staurosporine (apoptosis inducing agent, Sigma) at 37° C., 5% CO2 for 4 hours.

## [Na+].[Na+].[Na+].[O]=[V]([O-])([O-])[O-] [sodium orthovanadate]
[1]
  1204 dalton peak (dephosphorylated PTP substrate peptide) in MALDI-TOF: remarkably reduced

## CN[C@@H]1C[C@H]2O[C@@](C)([C@@H]1OC)n1c3ccccc3c3c4c(c5c6ccccc6n2c5c31)C(=O)NC4 [Staurosporine]
Intracellular caspases [2]
  cleavage of caspase substrate peptide (mass peak of 1041 dalton): cleaved by caspase activated by staurosporine
Intracellular caspases [3]
  intracellular caspase activation: TAMRA dye-containing peptide fragments released into the cells: intracellular caspases are activated

## O=C(CBr)c1ccc(O)cc1 [α-bromo-4-hydroxyacetophenone]
[1]
  1204 dalton peak (dephosphorylated PTP substrate peptide) in MALDI-TOF: remarkably reduced
